{"source": "patent EP0381514B1", "about": "“Use of N-methyl-sphingosine as inhibitor of cell growth” (The Biomembrane Institute, priority 1989, dated 1990)", "key": {"C-kinase": {"system": "C-kinase", "experiment": "Inhibition of C-kinase activity (liposome method, histone III-S, 32P-ATP)", "format": "biochemical, human", "set-up": "C-kinase ³²P incorporation: unit: cpm", "conditions": "for inhibitory activity of C-kinase: conclusion in words from Tables I, II and Figs. 2, 3; for C-kinase ³²P incorporation %: relative to phosphatidyl-serine, diolein, Ca⁺² control = 100; for Inhibition of C-kinase (concentration in »M yielding 50% inhibition): C-kinase from A431 cells", "protocol": "A431 cells were grown in a mixture of DME and Ham's F-12 medium (weight ratio 1:1) supplemented with 10% fetal calf serum (FCS). […] Briefly, cells were scraped by rubber policeman, suspended in 50 ml of 20 mM Tris-HCL (pH 7.5), 2 mM EDTA, 0.5 mM EGTA, 0.15 U/ml aprotinine, and 0.25 M sucrose, and homogenized by 50 strokes at 4°C in a Dounce homogenizer (40-ml size, Wheaton). The homogenized cells were ultracentrifuged at 100,000 xg for 60 min. The supernatant was purified on a DE52 column equilibrated with 20 mM Tris-HCL (pH 7.5), 2 mM EDTA, and 0.5 mM EGTA (buffer B), and washed well with this buffer. The C-kinase activity was eluted with buffer B containing 0.1 M NaCl.\nThe lipid mixture was sonicated in 30 »l of 20 mM Tris-HCl (pH 7.5) for 30 min. The liposomes in the tube were supplemented with the reaction mixture, consisting of 25 mM Tris-HCl (pH 7.5), 10 mM MgCl₂, 400 »M EDTA, 50 »M EGTA, 500 »M CaCl₂, 200 »g/ml Histone III-S, and 20 »M gamma-[³²P]-ATP (2 x 10⁶ cpm); final volume was 90 »l.\nThe reaction was initiated by addition of 10 »l of C-kinase fraction (containing 1-2 »g protein) prepared as described above, and the reaction mixture was incubated for 10 min at 30°C. […] The value without phosphatidylserine, 1,2-diolein, or Ca²⁺ were used as a control."}, "[1]": {"system": "human colonic cancer cells HRT-18", "experiment": "Inhibition of growth of human colonic cancer cells HRT-18 in vitro (cell count after 3 days)", "format": "cell-based", "conditions": "HRT-18, 3 days", "protocol": "HRT-18 cells were seeded in plates in Dulbecco's modified Eagle's medium supplemented with 10% fetal calf serum (5 x 10⁵ cells per each 3 cm plate). After the cells were cultured overnight, the medium was replaced with the same media containing various concentrations of N,N-dimethyl- or N-monomethyl sphingosine, N-acetylsphingosine, and ceramide as shown in Fig. 4. Cultures were continued for 3 days, and cell numbers were counted. The percent inhibition of cell numbers in the presence of reagents was calculated as percent of control dishes, which contained no sphingosine derivatives."}, "mouse splenocytes [2]": {"system": "mouse splenocytes", "experiment": "Inhibition of IL-2-dependent mitogenesis, mouse splenocytes", "format": "cell-based", "protocol": "The effect of N,N-dimethyl-sphingosine (prepared from naturally occurring sphingolipid as described in Example 3) on IL-2-dependent mitogenesis was tested using human peripheral blood lymphocytes and mouse splenocytes.\nInhibition of IL-2-induced mitogenesis of mouse splenocytes was determined in an analogous manner."}, "mouse splenocytes [3]": {"system": "mouse splenocytes", "experiment": "Inhibition of concanavalin-A-induced mitogenesis, mouse splenocytes", "format": "cell-based", "protocol": "The effect of N,N-dimethyl-sphingosine (prepared from naturally occurring sphingolipid as described in Example 3) on conconavalin-A (con-A) -induced mitogenesis was tested using human peripheral blood lymphocytes and mouse splenocytes.\nInhibition of con-A-induced mitogenisis of mouse splenocytes was determined in an analogous manner."}, "[4]": {"system": "human peripheral blood lymphocytes", "experiment": "Inhibition of concanavalin-A-induced mitogenesis (3H-thymidine uptake), human lymphocytes", "format": "cell-based", "conditions": "2 »g con-A/ml", "protocol": "Peripheral blood lymphocytes isolated from human blood by known methods were cultured in RPMI containing 2 »g con-A/ml for 18 hours in multiple wells. Subsequently, various concentrations of N,N-dimethylsphingosine, sphingosine, or N-acetylsphingosine as shown in Fig. 6 were added to the culture media and cultured continuously for 5 hours, followed by addition of ³H-thymidine. The thymidine uptake over a 5-hour period was determined. The % inhibition of mitogenesis was calculated based on control value (without addition of any inhibitor)."}, "[5]": {"system": "human peripheral blood lymphocytes", "experiment": "Inhibition of IL-2-dependent mitogenesis (3H-thymidine incorporation), human lymphocytes", "format": "cell-based", "conditions": "0.5 U/ml IL-2", "protocol": "Human peripheral blood lymphocytes isolated from human blood by known methods were cultured in RPMI containing 0.5 U/ml IL-2. […] Mitogenesis was measured by incorporation of ³H-thymidine into DNA over a 5-hour period. Percent inhibition as compared to the control value (without addition of any inhibitor) was determined."}, "HRT18 tumor cells": {"system": "HRT18 tumor cells", "experiment": "Inhibition of in vivo growth of HRT18 tumor cells in nude mice", "conditions": "44 »g/200 »l in PBS injected at day 7, 11 and 15; tumor weight estimated by size; significant (p>0.005 as printed)", "protocol": "The effect of N,N-dimethyl-sphingosine (prepared from naturally occurring sphingolipid as described in Example 3) on in vivo growth of HRT18 tumor cells in nude mice was determined as follows.\n1 x 10⁶ HRT-18 human colonic cancer cells were inoculated into nude mice at day 0 by known methods. N,N-dimethylsphingosine emulsified in phosphate buffered saline (PBS) (44 »g/200 »l) was injected at day 7, 11, and 15. Tumor growth weight in mg was estimated by the size of the tumors. Each group consisted of ten animals."}}}
{"molecule": "CCCCCCCCCCCCC/C=C/[C@H](O)[C@@H](CO)N(C)C", "note": "[N,N-dimethyl-L-erythro-sphingenine]", "values": [{"measurement": "inhibitory activity of C-kinase", "setting": "C-kinase", "value": "weaker inhibitory activity"}, {"measurement": "C-kinase ³²P incorporation", "setting": "C-kinase; lipid added at 2 »M", "value": "37354 ± 1420"}, {"measurement": "C-kinase ³²P incorporation %", "setting": "C-kinase; lipid added at 2 »M, 2 µM", "value": "95 ± 4", "unit": "%"}, {"measurement": "C-kinase ³²P incorporation", "setting": "C-kinase; lipid added at 10 »M", "value": "25583 ± 1931"}, {"measurement": "C-kinase ³²P incorporation %", "setting": "C-kinase; lipid added at 10 »M, 10 µM", "value": "65 ± 5", "unit": "%"}, {"measurement": "C-kinase ³²P incorporation", "setting": "C-kinase; lipid added at 25 »M", "value": "21743 ± 577"}, {"measurement": "C-kinase ³²P incorporation %", "setting": "C-kinase; lipid added at 25 »M, 25 µM", "value": "55 ± 2", "unit": "%"}, {"measurement": "C-kinase ³²P incorporation", "setting": "C-kinase; lipid added at 50 »M", "value": 11020}, {"measurement": "C-kinase ³²P incorporation %", "setting": "C-kinase; lipid added at 50 »M, 50 µM", "value": 28, "unit": "%"}]}
{"molecule": "N-monomethyl-sphingosine", "values": [{"measurement": "inhibition of cell growth", "setting": "[1]; at 12.5 »M concentration", "value": "significantly inhibited"}]}
{"molecule": "CCCCCCCCCCCCC/C=C/[C@@H](O)[C@H](CO)N(C)C", "note": "[N,N-dimethyl-sphingosine]", "values": [{"measurement": "inhibitory effect on IL-2-dependent mitogenesis", "setting": "mouse splenocytes [2]", "value": "strong inhibitory effect"}, {"measurement": "inhibitory effect on concanavalin-A-induced mitogenesis", "setting": "mouse splenocytes [3]", "value": "strong inhibitory effect"}, {"measurement": "inhibition of con-A-dependent growth stimulation", "setting": "[4]", "value": "greatly inhibited"}, {"measurement": "inhibition of cell growth", "setting": "[1]; at 12.5 »M concentration", "value": "significantly inhibited"}, {"measurement": "inhibition of IL-2-dependent mitogenesis", "setting": "[5]", "value": "invariably inhibited"}, {"measurement": "inhibition of growth", "setting": "HRT18 tumor cells", "value": "more than 50%"}]}
{"molecule": "CCCCCCCCCCCCC/C=C/[C@@H](O)[C@H](CO)N(C)C", "note": "[N,N-dimethyl-D-erythro-sphingenine]", "values": [{"measurement": "inhibitory activity of C-kinase", "setting": "C-kinase", "value": "strikingly strong inhibitory activity"}, {"measurement": "C-kinase ³²P incorporation", "setting": "C-kinase; lipid added at 2 »M", "value": "34206 ± 1220"}, {"measurement": "C-kinase ³²P incorporation %", "setting": "C-kinase; lipid added at 2 »M, 2 µM", "value": "86 ± 3", "unit": "%"}, {"measurement": "C-kinase ³²P incorporation", "setting": "C-kinase; lipid added at 10 »M", "value": "20563 ± 1173"}, {"measurement": "C-kinase ³²P incorporation %", "setting": "C-kinase; lipid added at 10 »M, 10 µM", "value": "52 ± 3", "unit": "%"}, {"measurement": "C-kinase ³²P incorporation", "setting": "C-kinase; lipid added at 25 »M", "value": "15214 ± 377"}, {"measurement": "C-kinase ³²P incorporation %", "setting": "C-kinase; lipid added at 25 »M, 25 µM", "value": "38 ± 1", "unit": "%"}, {"measurement": "C-kinase ³²P incorporation", "setting": "C-kinase; lipid added at 50 »M", "value": 5254}, {"measurement": "C-kinase ³²P incorporation %", "setting": "C-kinase; lipid added at 50 »M, 50 µM", "value": 13, "unit": "%"}]}
{"molecule": "CCCCCCCCCCCCC/C=C/[C@H](O)[C@H](CO)N(C)C", "note": "[N,N-dimethyl-L-threo-sphingosine]", "values": [{"measurement": "inhibition of cell growth", "setting": "[1]; at 12.5 »M concentration", "value": "significantly inhibited"}]}
{"molecule": "Lactosylsphingosine [reference compound]", "values": [{"measurement": "Inhibition of C-kinase (concentration in »M yielding 50% inhibition)", "setting": "C-kinase", "value": "no inhibition"}]}
{"molecule": "CCCCCCCCCCCCC/C=C/[C@H](O)[C@H](N)CO", "note": "[L-erythro-sphingenine, L(-)-erythro-sphingenine, reference compound]", "values": [{"measurement": "inhibitory activity of C-kinase", "setting": "C-kinase", "value": "weak and similar inhibitory activity"}, {"measurement": "C-kinase ³²P incorporation", "setting": "C-kinase; lipid added at 50 »M", "value": "18549 ± 2760"}, {"measurement": "C-kinase ³²P incorporation %", "setting": "C-kinase; lipid added at 50 »M, 50 µM", "value": "47 ± 7", "unit": "%"}]}
{"molecule": "CCCCCCCCCCCCC/C=C/[C@@H](O)[C@@H](N)CO", "note": "[sphingosine]", "values": [{"measurement": "inhibition of IL-2-dependent mitogenesis", "setting": "[5]", "value": "less so"}]}
{"molecule": "Ceramide [reference compound]", "values": [{"measurement": "Inhibition of C-kinase (concentration in »M yielding 50% inhibition)", "setting": "C-kinase", "value": "no inhibition"}, {"measurement": "inhibition of cell growth", "setting": "[1]; at 150 »M concentration", "value": "minimum inhibition"}]}
{"molecule": "CCCCCCCCCCCCC/C=C/[C@@H](O)[C@@H](N)CO", "note": "[D-erythro-sphingenine, D(+)-erythro-sphingenine, reference compound]", "values": [{"measurement": "inhibitory activity of C-kinase", "setting": "C-kinase", "value": "weak and similar inhibitory activity"}, {"measurement": "C-kinase ³²P incorporation", "setting": "C-kinase; lipid added at 50 »M", "value": "18754 ± 2184"}, {"measurement": "C-kinase ³²P incorporation %", "setting": "C-kinase; lipid added at 50 »M, 50 µM", "value": "47 ± 6", "unit": "%"}]}
{"molecule": "CCCCCCCCCCCCC/C=C/[C@@H](O)[C@H](CO)NC(C)=O", "note": "[N-acetylsphingosine, reference compound]", "values": [{"measurement": "Inhibition of C-kinase (concentration in »M yielding 50% inhibition)", "setting": "C-kinase", "value": "no inhibition"}, {"measurement": "inhibition of cell growth", "setting": "[1]; at 150 »M concentration", "value": "minimum inhibition"}, {"measurement": "inhibition of IL-2-dependent mitogenesis", "setting": "[5]", "value": "less so"}]}
